In patent US8551937B2, “Peptide having an extending action for half-life of object peptide in plasma” (priority 2008, dated 2013) one finds half-life data, which are given here for three compounds.

The structures appear in SMILES notation. Where a SMILES comes first, the peptide text is derived from it.

This data set can be described thus: Motilin immunoreactivity concentration in plasma, half-life after intravenous administration (Example 8). The following applies: male, SD, rat, in vivo, iv, 10 nmol/kg. The procedure: The experiment was carried out using rats into which polyethylene tube (PE-50 manufactured by Clay Adams) was inserted into thigh artery under an anesthetized condition with Nembutal. As to a test system, male SD strain rats (Nippon Charles River) of 7 weeks age were used where one group comprised 3 rats. Human motilin or a derivative thereof in a dose of 10 nmol/kg was administered into tail vein of the rat and the blood before the administration and until 60 minutes after the administration was periodically collected by a polyethylene tube inserted into the thigh artery. To the collected blood were added EDTA (manufactured by Dojin Laboratories) and aprotinin (manufactured by Bayer) as a stabilizer and an anti-coagulant, respectively and the plasma was separated therefrom by centrifugal separation. Motilin immunoreactivity concentration in plasma was measured by a competitive radioimmunoassay (RIA) (FIG. 8). At that time, a rabbit polyclonal antibody (#870623) which specifically recognizes the amino acid numbers 1 to 12 of native motilin shown by SEQ ID No: 102 was used as an antibody and, as a labeled compound, ^125I-[Tyr^7] human motilin was used.
Take `CC[C@H](C)[C@H](NC(=O)[C@@H]1CCCN1C(=O)[C@@H](NC(=O)[C@@H](N)Cc1ccccc1)C(C)C)C(=O)N[C@@H](Cc1ccccc1)C(=O)N[C@H](C(=O)N[C@@H](Cc1ccc(O)cc1)C(=O)NCC(=O)N[C@@H](CCC(=O)O)C(=O)N[C@@H](CC(C)C)C(=O)N[C@@H](CCC(N)=O)C(=O)N[C@@H](CCCNC(=N)N)C(=O)N[C@H](C(=O)N[C@@H](CCC(N)=O)C(=O)N[C@@H](CCC(N)=O)C(=O)N[C@@H](CCCNC(=N)N)C(=O)N[C@@H](CCCCN)C(=O)NCC(=O)NCC(=O)N[C@@H](CCC(=O)O)C(=O)N[C@@H](CO)C(=O)N[C@@H](CCCCN)C(=O)N[C@@H](CCCCN)C(=O)N1CCC[C@H]1C(=O)N1CCC[C@H]1C(=O)N[C@@H](C)C(=O)N[C@@H](CCCCN)C(=O)N[C@@H](CC(C)C)C(=O)N[C@@H](CCC(N)=O)C(=O)N1CCC[C@H]1C(=O)N[C@@H](CCCNC(=N)N)C(=O)O)C(C)C)[C@@H](C)O` [Chimeric motilin (II)(MG-i17G2)] (H-FVPIFTYGELQRVQQRKGGESKKPPAKLQPR-OH; N-terminus and C-terminus assumed): the half-life (in general, the time in which the quantity being followed falls by half) came to 11.5 min.

Take `CC[C@H](C)[C@H](NC(=O)[C@@H]1CCCN1C(=O)[C@@H](NC(=O)[C@@H](N)Cc1ccccc1)C(C)C)C(=O)N[C@@H](Cc1ccccc1)C(=O)N[C@H](C(=O)N[C@@H](Cc1ccc(O)cc1)C(=O)NCC(=O)N[C@@H](CCC(=O)O)C(=O)N[C@@H](CC(C)C)C(=O)N[C@@H](CCC(N)=O)C(=O)N[C@@H](CCCNC(=N)N)C(=O)N[C@H](C(=O)N[C@@H](CCC(N)=O)C(=O)N[C@@H](CCC(N)=O)C(=O)N[C@@H](CCCNC(=N)N)C(=O)N[C@@H](CCCCN)C(=O)N[C@@H](CCC(=O)O)C(=O)N[C@@H](CO)C(=O)N[C@@H](CCCCN)C(=O)N[C@@H](CCCCN)C(=O)N1CCC[C@H]1C(=O)N1CCC[C@H]1C(=O)N[C@@H](C)C(=O)N[C@@H](CCC(=O)O)C(=O)N[C@@H](CC(C)C)C(=O)N[C@@H](C)C(=O)N[C@@H](C)C(=O)N[C@@H](CC(C)C)C(=O)N[C@@H](CCCCN)C(=O)N[C@@H](C)C(=O)O)C(C)C)[C@@H](C)O` [Chimeric motilin (VIII)(MG-H4)] (H-FVPIFTYGELQRVQQRKESKKPPAELAALKA-OH; N-terminus and C-terminus assumed): the half-life stood at 11.6 min.

`CC[C@H](C)[C@H](NC(=O)[C@H](CCSC)NC(=O)[C@H](CCCCN)NC(=O)[C@H](CCCCN)NC(=O)[C@H](CO)NC(=O)[C@H](CCC(=O)O)NC(=O)[C@H](CCCCN)NC(=O)[C@H](CCCNC(=N)N)NC(=O)[C@H](CCC(N)=O)NC(=O)[C@H](CCC(N)=O)NC(=O)[C@@H](NC(=O)[C@H](CCCNC(=N)N)NC(=O)[C@H](CCC(N)=O)NC(=O)[C@H](CC(C)C)NC(=O)[C@H](CCC(=O)O)NC(=O)CNC(=O)[C@H](Cc1ccc(O)cc1)NC(=O)[C@@H](NC(=O)[C@H](Cc1ccccc1)NC(=O)[C@@H](NC(=O)[C@@H]1CCCN1C(=O)[C@@H](NC(=O)[C@@H](N)Cc1ccccc1)C(C)C)[C@@H](C)CC)[C@@H](C)O)C(C)C)C(=O)N[C@H](C(=O)N[C@H](C(=O)N[C@@H](CCCNC(=N)N)C(=O)O)[C@@H](C)CC)[C@@H](C)O` [Chimeric motilin (IX)(MG-dPPS)] (H-FVPIFTYGELQRVQQRKESKKMITIR-OH; N-terminus and C-terminus assumed) showed a half-life of 4.39 min.
